From US20070049564A1 (Wyeth, priority 2005, published 2007)
≈ marks a conversion by molar mass, not a printed value. Read-outs that look alike come from different tables or passages of the source.

Key:
[1] = tested on: S. aureus GC 2216; assay: MIC, broth microdilution; settings: Staphylococcus aureus, GC2216, S. aureus GC 2216
[2] = tested on: S. aureus GC 6466; assay: MIC, broth microdilution; settings: Staphylococcus aureus, GC6466, S. aureus GC 6466
[3] = tested on: E. coli GC 2236; assay: MIC, broth microdilution; settings: Escherichia coli, GC2236, E. coli GC 2236
[4] = tested on: S. agalactiae GC 4564; assay: MIC, broth microdilution; settings: Streptococcus agalactiae, GC4564, S. agalactiae GC 4564
[5] = tested on: E. faecalis GC 2242; assay: MIC, broth microdilution; settings: Enterococcus faecalis, GC2242, E. faecalis GC 2242
[6] = tested on: S. pyogenes GC 4563; assay: MIC, broth microdilution; settings: Streptococcus pyogenes, GC4563, S. pyogenes GC 4563
[7] = tested on: E. coli GC 2234; assay: MIC, broth microdilution; settings: Escherichia coli, GC2234, E. coli GC 2234
[8] = tested on: S. pneumoniae* GC 4465; assay: MIC, broth microdilution; settings: Streptococcus pneumoniae, S. pneumoniae* GC 4465
[9] = tested on: Staph.; assay: Range of MIC for Staph. strains, including MRSA; settings: Staphylococcus aureus, MRSA
[10] = tested on: E. coli GC 2235; assay: MIC, broth microdilution; settings: Escherichia coli, GC2235, E. coli GC 2235
[11] = tested on: E. coli GC 2231; assay: MIC, broth microdilution; settings: Escherichia coli, GC2231, E. coli GC 2231
[12] = tested on: E. faecium GC 4556; assay: MIC, broth microdilution; settings: Enterococcus faecium, GC4556, E. faecium GC 4556
[13] = tested on: S. aureus GC 4536; assay: MIC, broth microdilution; settings: Staphylococcus aureus, GC4536, S. aureus GC 4536
[14] = tested on: E. coli; assay: Range of MIC for E. coli strains; settings: Escherichia coli
[15] = tested on: S. typhimurium GC 2172; assay: MIC, broth microdilution; settings: Salmonella enterica, TYPHIMURIUM, S. typhimurium GC 2172
[16] = tested on: E. faecalis GC 4555; assay: MIC, broth microdilution; settings: Enterococcus faecalis, GC4555, E. faecalis GC 4555
[17] = tested on: E. coli GC 2232; assay: MIC, broth microdilution; settings: Escherichia coli, GC2232, E. coli GC 2232
[18] = tested on: E. coli GC 4559; assay: MIC, broth microdilution; settings: Escherichia coli, GC4559, E. coli GC 4559
[19] = tested on: Staph. aureus Smith; assay: In vivo activity (oral, iv; ED50) against Staph. aureus Smith in mice; settings: Staphylococcus aureus, in Mus musculus
Description: Representative examples of compounds of Formula I were tested for the oral efficacy using S. aureus Smith in mice.

[20] = tested on: S. pneumoniae+ GC 4465; assay: MIC, broth microdilution; settings: Streptococcus pneumoniae, S. pneumoniae+ GC 4465

What does the source list for `CCCCN(CC(=O)Nc1cc(N(C)C)c2c(c1O)C(=O)C1=C(O)[C@]3(O)C(=O)C(C(N)=O)=C(O)[C@@H](N(C)C)C3CC1C2)C(=O)OCOC(=O)C(C)C` (stereo partly drawn) [Example 1, ({[(2-{[(7S,10aS)-9-(aminocarbonyl)-4,7-bis(dimethylamino)-1,8,10a,11-tetrahydroxy-10,12-dioxo-5,5a,6,6a,7,10,10a,12-octahydrotetracen-2-yl]amino}-2-oxoethyl)(butyl)amino]carbonyl}oxy)methyl 2-methylpropanoate]?
MIC ([1]; Mouse Serum pre-incubation): 1 µg/mL (≈ 1.37 µM); MIC ([1]; Water pre-incubation): 4 µg/mL (≈ 5.48 µM); MIC ([2]; Mouse Serum pre-incubation): 1 µg/mL (≈ 1.37 µM); MIC ([2]; Water pre-incubation): 1 µg/mL (≈ 1.37 µM); MIC ([3]; Mouse Serum pre-incubation): 1 µg/mL (≈ 1.37 µM); MIC ([3]; Water pre-incubation): 16 µg/mL (≈ 21.9 µM); MIC ([4]; Mouse Serum pre-incubation): 0.5 µg/mL (≈ 0.685 µM); MIC ([4]; Water pre-incubation): 1 µg/mL (≈ 1.37 µM); MIC ([5]; Mouse Serum pre-incubation): 1 µg/mL (≈ 1.37 µM); MIC ([5]; Water pre-incubation): 4 µg/mL (≈ 5.48 µM); MIC ([6]; Mouse Serum pre-incubation): 0.25 µg/mL (≈ 0.343 µM); MIC ([6]; Water pre-incubation): 0.5 µg/mL (≈ 0.685 µM); MIC ([7]; Mouse Serum pre-incubation): 0.5 µg/mL (≈ 0.685 µM); MIC ([7]; Water pre-incubation): 16 µg/mL (≈ 21.9 µM); MIC ([8]; Mouse Serum pre-incubation): 0.5 µg/mL (≈ 0.685 µM); MIC ([8]; Water pre-incubation): 0.25 µg/mL (≈ 0.343 µM); MIC ([9]; read-out: Minimum inhibitory concentration (MIC), Staph. (mouse serum)): 1 to 4 µg/mL (≈ 1.37 to 5.48 µM); MIC ([9]; read-out: Minimum inhibitory concentration (MIC), Staph. (water)): 1 to 8 µg/mL (≈ 1.37 to 11 µM); MIC ([9]; read-out: Range of MIC, Staph (Mouse Serum)): 1 to 4 µg/mL (≈ 1.37 to 5.48 µM); MIC ([9]; read-out: Range of MIC, Staph (Water)): 1 to 8 µg/mL (≈ 1.37 to 11 µM); MIC ([10]; Mouse Serum pre-incubation): 0.5 µg/mL (≈ 0.685 µM); MIC ([10]; Water pre-incubation): 16 µg/mL (≈ 21.9 µM); MIC ([11]; Mouse Serum pre-incubation): 1 µg/mL (≈ 1.37 µM); MIC ([11]; Water pre-incubation): 64 µg/mL (≈ 87.7 µM); MIC ([12]; Mouse Serum pre-incubation): 1 µg/mL (≈ 1.37 µM); MIC ([12]; Water pre-incubation): 4 µg/mL (≈ 5.48 µM); MIC ([13]; Mouse Serum pre-incubation): 2 µg/mL (≈ 2.74 µM); MIC ([13]; Water pre-incubation): 4 µg/mL (≈ 5.48 µM); MIC ([14]; 20 h, read-out: Range of MIC, E. coli (Mouse Serum)): 0.5 to 1 µg/mL (≈ 0.685 to 1.37 µM); MIC ([14]; read-out: Minimum inhibitory concentration (MIC), E. coli (mouse serum)): 0.5 to 1 µg/mL (≈ 0.685 to 1.37 µM); MIC ([14]; read-out: Minimum inhibitory concentration (MIC), E. coli (water)): 16 to 64 µg/mL (≈ 21.9 to 87.7 µM); MIC ([14]; read-out: Range of MIC, E. coli (Water)): 16 to 64 µg/mL (≈ 21.9 to 87.7 µM); MIC ([15]; Mouse Serum pre-incubation): 4 µg/mL (≈ 5.48 µM); MIC ([15]; Water pre-incubation): > 64 µg/mL; MIC ([16]; Mouse Serum pre-incubation): 1 µg/mL (≈ 1.37 µM); MIC ([16]; Water pre-incubation): 4 µg/mL (≈ 5.48 µM); MIC ([17]; Mouse Serum pre-incubation): 0.5 µg/mL (≈ 0.685 µM); MIC ([17]; Water pre-incubation): 16 µg/mL (≈ 21.9 µM); MIC ([18]; Mouse Serum pre-incubation): 1 µg/mL (≈ 1.37 µM); MIC ([18]; Water pre-incubation): 32 µg/mL (≈ 43.8 µM); ED50 ([19]; iv, read-out: ED50 SIV (Staph aureus Smith)): 0.6 mg/kg; ED50 ([19]; po, read-out: ED50 SOD (Staph aureus Smith)): 4.7 mg/kg; MIC ([20]; Mouse Serum pre-incubation): 2 µg/mL (≈ 2.74 µM); MIC ([20]; Water pre-incubation): 2 µg/mL (≈ 2.74 µM)
